The values below come from patent publication US10975078B2, “Fused indazole pyridone compounds as antivirals” (priority 2017, dated 2021).

Where two headings read alike, the source gives them in different places.

The subject of this experiment is HBsAg secretion, HepG2-Clone42 cells (Tet-inducible HBV-expressing, HBV ayw strain). Nature of the experiment: HBsAg assay (HBsAg ELISA, secreted HBV sAg from HepG2-Clone42 cells). In kind it is cell-based. As for the experimental part: HepG2-Clone42, a Tet-inducible HBV-expressing cell line with a stably integrated 1.3 mer copy of the HBV ayw strain, was generated based on the Tet-inducible HepAD38 cell line with slight modifications. Ladner S K, et al., Antimicrobial Agents and Chemotherapy. 41(8):1715-1720 (1997). HepG2-Clone42 cells were cultured in DMEM/F-12+Glutamax™ (Life Technologies, Carlsbad, Calif., USA), supplemented with 10% fetal bovine serum (Life Technologies), G-418 (Corning, Manassas, Va., USA) at a final concentration of 0.5 mg/mL, and 5 μg/mL Doxycycline (Sigma, St. Louis, Mo., USA) and maintained in 5% CO2 at 37° C.
HepG2-Clone42 cells were seeded into black clear-bottom 96-well plates at a concentration of 6.0×10^4 cells/well. 24 hours post-seeding, the cells were treated with 200 μl/well of media containing five-fold serial dilutions of compounds in DMSO. DMSO alone was used as the no drug control. The final DMSO concentration in all wells was 0.5%.
The HBsAg ELISA kit (Alpha Diagnostic International, San Antonio, Tex., USE, Catalog #4110) was used to determine the level (semi-quantitative) of secreted HBV sAg. The HBSAg ELISA assay was performed following the manufacturer's protocol as described.
Step 1. Pipet 100 μL each of compound or DMSO treated samples into HBsAg ELISA plates. Seal plates and incubate at room temp for 60 minutes.
Step 2. Aspirate samples and wash three times with Wash Buffer. Dispense 100 μL of antibody-HRP conjugate to each well. Incubate at room temp for 30 minutes.
Step 3. Aspirate samples and wash three times with Wash Buffer. Add 100 μL of TMB Substrate to all wells and incubate 15 minutes at room temp.
Step 4. Dispense 100 μL of Stop Solution to each well. Measure absorbance of ELISA plate at 450 nm.
Dose-response curves were generated and the EC50 value was defined as the compound concentration at which HBsAg secretion was reduced 50% compared to the DMSO control.
EC50 values were determined as follows:
Determine the percent of HBsAg secretion inhibition. Calculate the percent inhibition on of HBsAg secretion inhibition using the following equation: […]
where XC is the absorbance signal from compound-treated well; MB is average absorbance signal (background signal) for column 12 (no cells+HBsAg ELISA sample buffer) and MD is average absorbance signal from DMSO-treated wells. Then calculate EC50 values by non-linear regression using a four parameter curve logistic equation.
The curve fit model employed is XLFit Dose Response One Site Model 204: y=(A+((B−A)/(1+(10^((C−x)*D))))) where A is the minimum y value, B is the maximum y value, C is the log EC50 value, and D is the slope factor. In the following table+≥100 nM; 100 nM>++≥1 nM; 1 nM>+++
For orientation: ELISA stands for enzyme-linked immunosorbent assay.

Where [1] appears, read: read-out: HBsAg, EC50 = concentration at which HBsAg secretion was reduced 50% compared to DMSO control.
[2] abbreviates: Hepatitis B virus, read-out: HBsAg (nM), EC50 = concentration at which HBsAg secretion was reduced 50% compared to DMSO control.

`COc1cccc2c3n(nc12)C1CCC(C)(C)C1n1cc(C(=O)O)c(=O)cc1-3` (single isomer, unassigned) [Example 5.1-II, 12-methoxy-3,3-dimethyl-7-oxo-2,3,3a,14a-tetrahydro-1H,7H-cyclopenta[5,6]pyrido[2′,1′:3,4]pyrazino[1,2-b]indazole-6-carboxylic Acid]: the EC50 under setting [1] is over 100 nM. As for `CC(C)(C)C1Cn2nc3c(OCCCO)cccc3c2-c2cc(=O)c(C(=O)O)cn21` (racemic) [Example 2.17, 6-(tert-butyl)-10-(3-hydroxypropoxy)-2-oxo-6,7-dihydro-2H-pyrido[2′,1′:3,4]pyrazino[1,2-b]indazole-3-carboxylic Acid], the EC50 under setting [2] was under 1 nM. Still for that read-out and setting: next, `CC(C)(C)C1Cn2nc3c(OCCO)cccc3c2-c2cc(=O)c(C(=O)O)cn21` (racemic) [Example 2.18, 6-(tert-butyl)-10-(2-hydroxyethoxy)-2-oxo-6,7-dihydro-2H-pyrido[2′,1′:3,4]pyrazino[1,2-b]indazole-3-carboxylic Acid]: 1 to 100 nM. On to `CC1(C)CCC2C1n1cc(C(=O)O)c(=O)cc1-c1c3cccc(F)c3nn12` (single isomer, unassigned) [Example 5.2-II, 12-fluoro-3,3-dimethyl-7-oxo-2,3,3a,14a-tetrahydro-1H,7H-cyclopenta[5,6]pyrido[2′,1′:3,4]pyrazino[1,2-b]indazole-6-carboxylic Acid], for which, under setting [1], the EC50 is over 100 nM.

For `COc1ccc2nn3c(c2c1)-c1cc(=O)c(C(=O)O)cn1C(C(C)(C)C)C3` (single isomer, unassigned) [Example 1.3-II, 6-(tert-butyl)-12-methoxy-2-oxo-6,7-dihydro-2H-pyrido[2′,1′:3,4]pyrazino[1,2-b]indazole-3-carboxylic acid], under setting [2], the EC50 fell in the range of 1 to 100 nM. `CC(C)(C)C1Cn2nc3c(OC4CCOC4)cccc3c2-c2cc(=O)c(C(=O)O)cn21` (racemic) [Example 2.37, 6-(tert-butyl)-2-oxo-10-((tetrahydrofuran-3-yl)oxy)-6,7-dihydro-2H-pyrido[2′,1′:3,4]pyrazino[1,2-b]indazole-3-carboxylic Acid]: the EC50 under setting [2] was in the range of 1 to 100 nM.

As to `COCCOCCOc1cccc2c3n(nc12)CC(C(C)(C)C)n1cc(C(=O)O)c(=O)cc1-3` (racemic) [Example 2.12, 6-(tert-butyl)-10-(2-(2-methoxyethoxy)ethoxy)-2-oxo-6,7-dihydro-2H-pyrido[2′,1′:3,4]pyrazino[1,2-b]indazole-3-carboxylic Acid], under setting [2], the EC50 is 1 to 100 nM. Regarding `COCCOc1cccc2c3n(nc12)C1CCC(C)(C)C1n1cc(C(=O)O)c(=O)cc1-3` (single isomer, unassigned) [Example 6.2-II, 12-(2-methoxyethoxy)-3,3-dimethyl-7-oxo-2,3,3a,14a-tetrahydro-1H,7H-cyclopenta[5,6]pyrido[2′,1′:3,4]pyrazino[1,2-b]indazole-6-carboxylic Acid], under setting [1], the EC50 was under 1 nM. As for `CCOC(=O)c1cn2c(cc1=O)-c1c3cccc(OCCCOC)c3nn1CC2C(C)(C)C` (racemic) [Example 2.1i, ethyl 6-(tert-butyl)-10-(3-methoxypropoxy)-2-oxo-6,7-dihydro-2H-pyrido[2′,1′:3,4]pyrazino[1,2-b]indazole-3-carboxylate], the EC50 under setting [2] fell in the range of 1 to 100 nM. The same measure, in the same setting: next, `COCCCOc1cccc2c3n(nc12)C[C@@H](C(C)(C)C)n1cc(C(=O)O)c(=O)cc1-3` [Example 9.1, (R)-6-(tert-butyl)-10-(3-methoxypropoxy)-2-oxo-6,7-dihydro-2H-pyrido[2′,1′:3,4]pyrazino[1,2-b]indazole-3-carboxylic Acid]: under 1 nM. On the same count and under the same terms, under `CN(C)CCCOc1cccc2c3n(nc12)CC(C(C)(C)C)n1cc(C(=O)O)c(=O)cc1-3` (racemic) [Example 2.43, 6-(tert-butyl)-10-(3-(dimethylamino)propoxy)-2-oxo-6,7-dihydro-2H-pyrido[2′,1′:3,4]pyrazino[1,2-b]indazole-3-carboxylic Acid] stands over 100 nM; under `CC[C@H](C)COc1cccc2c3n(nc12)CC(C(C)(C)C)n1cc(C(=O)O)c(=O)cc1-3` (mixture of isomers) [Example 2.6, 6-(tert-butyl)-10-((S)-2-methylbutoxy)-2-oxo-6,7-dihydro-2H-pyrido[2′,1′:3,4]pyrazino[1,2-b]indazole-3-carboxylic Acid], under 1 nM. On the same count and under the same terms, under `CC(C)(C)C1Cn2nc3c(OCC4CC(F)(F)C4)cccc3c2-c2cc(=O)c(C(=O)O)cn21` (racemic) [Example 2.39, 6-(tert-butyl)-10-((3,3-difluorocyclobutyl)methoxy)-2-oxo-6,7-dihydro-2H-pyrido[2′,1′:3,4]pyrazino[1,2-b]indazole-3-carboxylic Acid] stands under 1 nM.

Take `CC(C)Oc1cccc2c3n(nc12)CC(C(C)(C)C)n1cc(C(=O)O)c(=O)cc1-3` (single isomer, unassigned) [Example 2.47-I, 6-(tert-butyl)-10-isopropoxy-2-oxo-6,7-dihydro-2H-pyrido[2′,1′:3,4]pyrazino[1,2-b]indazole-3-carboxylic Acid]: under setting [1], the EC50 is over 100 nM. Consider `CC(C)(C)C1Cn2nc3c(OC[C@@H]4CCC(=O)N4)cccc3c2-c2cc(=O)c(C(=O)O)cn21` (single isomer, unassigned) [Example 2.33-II], for which the EC50 under setting [1] was over 100 nM. Still for that read-out and setting: next, `COCC(C)(C)C1Cn2nc3c(OC)cccc3c2-c2cc(=O)c(C(=O)O)cn21` (single isomer, unassigned) [Example 4.1-I, 10-methoxy-6-(1-methoxy-2-methylpropan-2-yl)-2-oxo-6,7-dihydro-2H-pyrido[2′,1′:3,4]pyrazino[1,2-b]indazole-3-carboxylic Acid]: under 1 nM; `COc1cccc2c3n(nc12)CC(C(C)(C)C)n1cc(C(=O)O)c(=O)cc1-3` (single isomer, unassigned) [Example 1.1-II, 6-(tert-butyl)-10-methoxy-2-oxo-6,7-dihydro-2H-pyrido[2′,1′:3,4]pyrazino[1,2-b]indazole-3-carboxylic acid]: over 100 nM. As to `CC(C)(C)C1Cn2nc3c(OCCOCC(F)(F)F)cccc3c2-c2cc(=O)c(C(=O)O)cn21` (centres unmarked) [Example 2.3, 6-(tert-butyl)-2-oxo-10-(2-(2,2,2-trifluoroethoxy)ethoxy)-6,7-dihydro-2H-pyrido[2′,1′:3,4]pyrazino[1,2-b]indazole-3-carboxylic Acid], under setting [2], the EC50 was under 1 nM. On the same count and under the same terms, next, `CC(C)(C)C1Cn2nc3c(OC4COC4)cccc3c2-c2cc(=O)c(C(=O)O)cn21` (racemic) [Example 2.26, 6-(tert-butyl)-10-(oxetan-3-yloxy)-2-oxo-6,7-dihydro-2H-pyrido[2′,1′:3,4]pyrazino[1,2-b]indazole-3-carboxylic Acid]: 1 to 100 nM. Turning to `COCCCOc1cccc2c3n(nc12)CC(C(C)(C)C)n1cc(C(=O)O)c(=O)c(F)c1-3` (single isomer, unassigned) [Example 8.1-I, 6-(tert-butyl)-1-fluoro-10-(3-methoxypropoxy)-2-oxo-6,7-dihydro-2H-pyrido[2′,1′:3,4]pyrazino[1,2-b]indazole-3-carboxylic Acid], the EC50 under setting [1] was over 100 nM.

With `COCCCOc1cccc2c3n(nc12)CC(C(C)(C)COC)n1cc(C(=O)O)c(=O)cc1-3` (single isomer, unassigned) [Example 7.1-II, 6-(1-methoxy-2-methylpropan-2-yl)-10-(3-methoxypropoxy)-2-oxo-6,7-dihydro-2H-pyrido[2′,1′:3,4]pyrazino[1,2-b]indazole-3-carboxylic Acid], the EC50 under setting [1] was under 1 nM.

For the compound `COCCCOc1cccc2c3n(nc12)CC(C(C)(C)C)n1cc(C(=O)O)c(=O)cc1-3` (single isomer, unassigned) [Example 2.1-I, 6-(tert-butyl)-10-(3-methoxypropoxy)-2-oxo-6,7-dihydro-2H-pyrido[2′,1′:3,4]pyrazino[1,2-b]indazole-3-carboxylic Acid], under setting [2], the EC50 is under 1 nM.

On to `CC(C)(C)C1Cn2nc3c(OCC4CNC4)cccc3c2-c2cc(=O)c(C(=O)O)cn21` (racemic) [Example 2.32, 10-(azetidin-3-ylmethoxy)-6-(tert-butyl)-2-oxo-6,7-dihydro-2H-pyrido[2′,1′:3,4]pyrazino[1,2-b]indazole-3-carboxylic Acid], for which the EC50 under setting [2] is over 100 nM.
